Data published in patent US8022034B2, “Combination therapy for the treatment of diabetes and conditions related thereto and for the treatment of conditions ameliorated by increasing a blood GLP-1 level” (Arena Pharmaceuticals, Inc., priority 2005, dated 2011).
pEC50: −log10 of the molar value.

Legend:
blood glucose level = experiment: Oral glucose tolerance test (oGTT) in C57BL/6J mice (Example 14); format: in vivo; details: DPP-IV inhibitor alone, 1 mpk oral gavage, one hour before glucose bolus 2 gram/kg
Description: Oral glucose tolerance test (oGTT) in 7-8 week old C57BL/6J mice was carried out as described here. […] GPR119 agonist AR244061 was administered at 10 mpk or 30 mpk (milligram compound per kilogram of body weight). […] One hour after compound dosing, a glucose bolus (2 gram/kg) was delivered per orally, and tail blood samples were collected to measure blood glucose at 0, 30, 60 and 120 minutes. […] For each treatment group, glycemic excursion curve was graphed and is presented with blood glucose concentration given in mean values+/− standard error of the mean (SEM). Area Under Curve (AUC) of the glycemic excursion was calculated and reported as AUC (% of vehicle control).

[1] = tested on: elevated blood glucose level; experiment: Oral glucose tolerance test (oGTT) in mice (Example 1); format: in vivo
Description: Oral glucose tolerance test (oGTT) in mice was carried out as described here. Overnight fasted mice (n=6 mice per treatment) were administered via oral gavage with vehicle (PET), a GPR119 agonist (AR231453) at 1 mkg (milligram compound per kilogram of body weight), a DPP-IV inhibitor (AR247810) at 0.1 mkg, or a combination of the GPR119 agonist (1 mkg) and the DPP-IV inhibitor (0.1 mkg). Thirty minutes later, a glucose bolus (3 gram/kg) was then delivered per orally. Plasma glucose levels were determined at the indicated time points over a two hour period using blood (˜5 μl) collected from tail nick and a glucose meter. Glycemic excursion curve was graphed based on data from 6 mice and given in mean values+/−SEM (FIG. 1A).

[2] = target: T1, GPR119 (GLUTag-Fla cells which express GPR119) (Mus musculus, UniProt Q7TQP3); experiment: Flash Plate adenylyl cyclase (cAMP) assay with GLUTag-Fla cell membranes; format: biochemical
T1 construct: endogenous in cells; host or cells: GLUTag-Fla (mouse enteroendocrine cell line), membrane preparation
T1 sequence (Q7TQP3 1-335): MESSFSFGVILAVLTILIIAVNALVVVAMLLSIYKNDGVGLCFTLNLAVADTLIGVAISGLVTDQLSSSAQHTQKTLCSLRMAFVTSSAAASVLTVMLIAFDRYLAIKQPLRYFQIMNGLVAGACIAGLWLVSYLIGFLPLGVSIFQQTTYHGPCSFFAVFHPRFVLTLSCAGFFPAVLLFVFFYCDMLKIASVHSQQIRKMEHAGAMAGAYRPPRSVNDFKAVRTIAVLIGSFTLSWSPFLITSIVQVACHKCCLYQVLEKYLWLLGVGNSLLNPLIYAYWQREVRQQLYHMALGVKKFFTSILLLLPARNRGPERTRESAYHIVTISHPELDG
Description: (§1) GLUTag is a mouse enteroendocrine cell line that secretes GLP-1 [Brubaker et al., Endocrinology (1998) 139:4108-4114]. The effect of GPR119 agonist on the level of intracellular cAMP in GLUTag (Fla subline) enteroendocrine cells was determined. The Fro subline of GLUTag was used as a negative control.
(§2) GluTag (GLUTag-Fla and GLUTag-Fro) cells were plated at […] in 15-cm tissue culture plate with regular growth medium. On the next day, cells were scraped off with cold Scraping Buffer (20 mM HEPES, 10 mM EDTA, pH7.4) and spinned down at 1000 rpm for 17 mins at 4° C. Cell pellets were washed with cold Membrane Wash Buffer (20 mM HEPES, 0.1 mM EDTA, pH7.4) and spun again as above. […] Protein concentration was determined by Bradford Assay. […]
(§3) The cyclase assay was done with a Flash Plate™ Adenylyl Cyclase kit (New England Nuclear; Cat. No. SMP004A). […] The cAMP generated in the wells can be quantitated by a direct competition for binding of radioactive cAMP tracer to the cAMP antibody.
(§4) Details of the cyclase assay as it was carried out are described here. cAMP standards and Detection Buffer (comprising 1 μCi of tracer [125I]cAMP (50 μl) to 11 ml Detection Buffer) were prepared and maintained in accordance with the manufacturer's instructions. […] Plates were incubated for an additional two hours, after which the samples were counted in a Wallac MicroBeta scintillation counter. […]

[3] = tested on: GLUTag-Fro cells which do not express GPR119; experiment: Flash Plate adenylyl cyclase (cAMP) assay with GLUTag-Fro cell membranes (negative control); format: biochemical, mouse
Description: as §1, §2, §3, §4

GLUTag-Fla cells = experiment: GLP-1 secretion in GLUTag-Fla cells (GLP-1 Active ELISA); format: cell-based, mouse; details: various concentrations, serum free DMEM with 15 mM glucose, one hour at 37° C.
Description: GLUTag-Fla cells (see Example 12, supra) were plated in 24-well plates on day one in complete culture medium (DMEM/10% FBS). On day two the culture medium was replaced with a low glucose medium (DMEM/3 mM Glucose/10% FBS). On day three cells were washed twice with 1XPBS. The washed GLUTag-Fla cells were stimulated with GPR119 agonist (AR231453) at various concentrations or with forskolin (1 uM) as a positive control in serum free DMEM with 15 mM glucose for one hour at 37° C. and 5% CO2 in a tissue culture incubator. The supernatants were then collected and clarified by centrifugation at 500 g and 4° C. for 5 minutes. GLP-1 released into the supernatant was determined by ELISA using reagents purchased from LINCO Research Laboratory [Glucagon-Like Peptide-1 (Active) ELISA Kit. Cat. #EGLP-35K].

## N#C[C@@H]1CCCN1C(=O)CNC12CC3CC(CC(O)(C3)C1)C2 [LAF237, (1-[[3-hydroxy-1-adamantyl)amino]acetyl]-2-cyano-(S)-pyrrolidine]
Blood glucose level
  Glycemic control in oGTT: measurable glycemic control

## exendin-4: incretin mimetic [reference compound]
[1]; incretin mimetic in this mouse model, dose not given
  AUC inhibition of glycemic excursion: ~60%

## N[C@@H](CC(=O)N1CCn2c(nnc2C(F)(F)F)C1)Cc1cc(F)c(F)cc1F [MK-0431, 3(R)-Amino-1-[3-(trifluoromethyl)-5,6,7,8-tetrahydro[1,2,4]triazolo[4,3-a]pyrazin-7-yl]-4-(2,4,5-trifluorophenyl)butan-1-one]
Blood glucose level
  Glycemic control in oGTT: measurable glycemic control

## CC(C)c1noc(C2CCN(c3ncnc(Nc4ccc(S(C)(=O)=O)cc4F)c3[N+](=O)[O-])CC2)n1 [AR231453]
[1]; compound alone at significantly higher doses (FIG. 1C, FIG. 1D)
  AUC inhibition (effective therapeutic response): around 40%
[2]; GLUTag-Fla cells which express GPR119
  Elevation of the level of intracellular cAMP: elevate the level of intracellular cAMP
[2]; GLUTag-Fla membranes, eight doses from 10 uM to 1.27 nM, 60 min at room temperature, read-out: EC50 for elevation of cAMP in GLUTag cells
  pEC50: ~8.37
[3]
  Elevation of the level of intracellular cAMP: not
GLUTag-Fla cells
  GLP-1 secretion on stimulation: secrete GLP-1
